Data published in patent US20260015350A1, “AZAQUINAZOLINE PAN-KRAS INHIBITORS” (Mirati Therapeutics, Inc., priority 2022, published 2026).

Key:
[1] = tested on: KRas-mediated phosphorylation of ERK in A549 cells; assay: Inhibition of KRas-mediated phosphorylation of ERK (Cisbio HTRF pERK), A549 cells; assay type: cell-based; conditions: Homo sapiens, HTRF pERK
How it was run: (§1)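 Using 6,000 cells per well, compounds are applied for 3 hrs and cells then lysed at 4° C with shaking for 40 mins. Phospho-ERK is measured by HTRF after 2 hrs of lysate incubation with the d2/Cryptate antibody mixture.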

[2] = tested on: KRas-mediated phosphorylation of ERK in MKN1 cells; assay: Inhibition of KRas-mediated phosphorylation of ERK (Cisbio HTRF pERK), MKN1 cells; assay type: cell-based; conditions: Homo sapiens, MKN-1
How it was run: (§2)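 Day 1 seeding: 6,000 cells per well, RPMI/10% FBS, left overnight at 37° C. with 5% CO2. Plates then stood covered for 4 h at room temperature prior to HTRF detection of pERK.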

[3] = tested on: KRas-mediated phosphorylation of ERK in H358 cells; assay: Inhibition of KRas-mediated phosphorylation of ERK (Cisbio HTRF pERK), H358 cells; assay type: cell-based; conditions: Homo sapiens, NCI-H358, HTRF pERK
How it was run: (§3)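 HTRF readout of phospho-ERK in cell lysates after 3 hrs of compound exposure. Dosing: 10 uM top, 3-fold steps, 10 doses, final DMSO 0.8%. Min control: 0.2 uM Trametinib. Lysis ran 40 mins at 4° C, and antibody detection 2 hrs at room temperature.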

[4] = tested on: KRas-mediated phosphorylation of ERK in HCT116 cells; assay: Inhibition of KRas-mediated phosphorylation of ERK (Cisbio HTRF pERK), HCT116 cells; assay type: cell-based; conditions: Homo sapiens, HCT-116, HTRF pERK
How it was run: as §1

KRas^G12R = biological target: T1, KRas^G12R (Homo sapiens, UniProt P01116, G12R); assay: KRas binding assay (TR-FRET tracer displacement), KRas G12R
T1 construct: Biotinylated KRas (corresponding to amino acids 1-169, produced at Accelegan Inc.); biotin (biotinylated); purchased Accelegan Inc
T1 sequence (P01116 1-169 isoform P01116-2 G12R): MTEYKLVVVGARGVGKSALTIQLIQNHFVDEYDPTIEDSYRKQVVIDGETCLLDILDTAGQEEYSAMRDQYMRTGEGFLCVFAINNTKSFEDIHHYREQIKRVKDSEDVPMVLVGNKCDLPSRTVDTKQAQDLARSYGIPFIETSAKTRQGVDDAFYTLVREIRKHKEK

[5] = tested on: KRas-mediated phosphorylation of ERK in H727 cells; assay: Inhibition of KRas-mediated phosphorylation of ERK (Cisbio HTRF pERK), H727 cells; assay type: cell-based; conditions: Homo sapiens, NCI-H727, H727 cells; HTRF pERK
How it was run: as §3

KRas^G12D = biological target: T2, KRas^G12D (Homo sapiens, UniProt P01116, G12D); assay: KRas binding assay (TR-FRET tracer displacement), KRas G12D
T2 construct: Biotinylated KRas (corresponding to amino acids 1-169, produced at Accelegan Inc.); biotin (biotinylated); purchased Accelegan Inc
T2 sequence (P01116 1-169 isoform P01116-2 G12D): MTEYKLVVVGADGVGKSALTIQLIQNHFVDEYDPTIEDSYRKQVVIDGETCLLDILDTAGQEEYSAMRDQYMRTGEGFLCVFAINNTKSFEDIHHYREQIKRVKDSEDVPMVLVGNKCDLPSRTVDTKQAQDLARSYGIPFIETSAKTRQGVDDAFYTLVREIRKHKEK

[6] = tested on: KRas-mediated phosphorylation of ERK in AsPC-1 cells; assay: Inhibition of KRas-mediated phosphorylation of ERK (Cisbio HTRF pERK), AsPC-1 cells; assay type: cell-based; conditions: Homo sapiens, ASPC1, AsPC-1 cells; HTRF pERK
How it was run: as §3

[7] = tested on: KRas-mediated phosphorylation of ERK in PSN1 cells; assay: Inhibition of KRas-mediated phosphorylation of ERK (Cisbio HTRF pERK), PSN1 cells; assay type: cell-based; conditions: Homo sapiens
How it was run: as §2

KRas^G12V = biological target: T3, KRas^G12V (Homo sapiens, UniProt P01116, G12V); assay: KRas binding assay (TR-FRET tracer displacement), KRas G12V
T3 construct: Biotinylated KRas (corresponding to amino acids 1-169, produced at Accelegan Inc.); biotin (biotinylated); purchased Accelegan Inc
T3 sequence (P01116 1-169 isoform P01116-2 G12V): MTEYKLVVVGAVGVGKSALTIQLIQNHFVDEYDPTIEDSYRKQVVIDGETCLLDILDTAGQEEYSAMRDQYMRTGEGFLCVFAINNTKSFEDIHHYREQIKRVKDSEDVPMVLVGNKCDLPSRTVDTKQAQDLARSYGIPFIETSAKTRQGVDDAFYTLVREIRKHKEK

[8] = tested on: KRas-mediated phosphorylation of ERK in H460 cells; assay: Inhibition of KRas-mediated phosphorylation of ERK (Cisbio HTRF pERK), H460 cells; assay type: cell-based; conditions: Homo sapiens, NCI-H460, HTRF pERK
How it was run: as §3

IC50 [1]	IC50 [2]	IC50 [3]	IC50 [4]	IC50 (KRas^G12R)	IC50 [5]	IC50 (KRas^G12D)	IC50 [6]	IC50 [7]	IC50 (KRas^G12V)	IC50 [8]	Compound
873 nM	19 nM	623 nM	1400 nM	20 nM	2420 nM	99 nM	2450 nM	> 10000 nM	60 nM	368 nM	CCc1c(F)ccc2cc(O)cc(-c3ncc4c(N5CC6CCC(CO)(C5)C6(F)F)nc(OC[C@@]56CCCN5C[C@H](F)C6)nc4c3F)c12 (stereo partly drawn) [Example 901, 4-(4-(8,8-difluoro-1-(hydroxymethyl)-3-azabicyclo[3.2.1]octan-3-yl)-8-fluoro-2-(((2R,7aS)-2-fluorotetrahydro-1H-pyrrolizin-7a(5H)-yl)methoxy)pyrido[4,3-d]pyrimidin-7-yl)-5-ethyl-6-fluoronaphthalen-2-ol]
112 nM	4 nM	21 nM	167 nM	< 2 nM	121 nM	< 2 nM	30 nM	2510 nM	< 2 nM	53 nM	CCc1c(F)ccc2cc(O)cc(-c3ncc4c(N5CCC[C@@](C)(O)C5)nc(OC[C@@]56CCCN5[C@H](COCC5CCCC5)CC6)nc4c3F)c12 [Example 904, (R)-1-(2-(((3S,7aS)-3-((cyclopentylmethoxy)methyl)tetrahydro-1H-pyrrolizin-7a(5H)-yl)methoxy)-7-(8-ethyl-7-fluoro-3-hydroxynaphthalen-1-yl)-8-fluoropyrido[4,3-d]pyrimidin-4-yl)-3-methylpiperidin-3-ol]
2610 nM	1140 nM	2700 nM	6310 nM	94 nM	7440 nM	297 nM	4150 nM	> 10000 nM	394 nM	1350 nM	CCc1c(F)ccc2cc(O)cc(-c3ncc4c(N5CC6CCC(C(=O)N(C)C)(C5)C6(F)F)nc(OC[C@@]56CCCN5C[C@H](F)C6)nc4c3F)c12 (stereo partly drawn) [Example 905, 3-(7-(8-ethyl-7-fluoro-3-hydroxynaphthalen-1-yl)-8-fluoro-2-(((2R,7aS)-2-fluorotetrahydro-1H-pyrrolizin-7a(5H)-yl)methoxy)pyrido[4,3-d]pyrimidin-4-yl)-8,8-difluoro-N,N-dimethyl-3-azabicyclo[3.2.1]octane-1-carboxamide]
827 nM	137 nM	325 nM	1580 nM	18 nM	922 nM	88 nM	2040 nM	> 10000 nM	23 nM	590 nM	CCc1c(F)ccc2cc(O)cc(-c3ncc4c(N5C[C@H]6CC[C@@](C(=O)NC)(C5)C6(F)F)nc(OC[C@@]56CCCN5C[C@H](F)C6)nc4c3F)c12 [Example 907, (1S,5R)-3-(7-(8-ethyl-7-fluoro-3-hydroxynaphthalen-1-yl)-8-fluoro-2-(((2R,7aS)-2-fluorotetrahydro-1H-pyrrolizin-7a(5H)-yl)methoxy)pyrido[4,3-d]pyrimidin-4-yl)-8,8-difluoro-N-methyl-3-azabicyclo[3.2.1]octane-1-carboxamide]
226 nM	17 nM	114 nM	231 nM	10 nM	527 nM	11 nM	526 nM	> 10000 nM	3 nM	108 nM	CCc1c(F)ccc2cc(O)cc(-c3ncc4c(N5CC6CCC(CC(=O)N(C)C)(C6)C5)nc(OC[C@@]56CCCN5C[C@H](F)C6)nc4c3F)c12 (stereo partly drawn) [Example 911, 2-(3-(7-(8-ethyl-7-fluoro-3-hydroxynaphthalen-1-yl)-8-fluoro-2-(((2R,7aS)-2-fluorotetrahydro-1H-pyrrolizin-7a(5H)-yl)methoxy)pyrido[4,3-d]pyrimidin-4-yl)-3-azabicyclo[3.2.1]octan-1-yl)-N,N-dimethylacetamide]

Further lines, the compound ahead of its results:

Compound	IC50 [1]	IC50 [2]	IC50 [3]	IC50 [4]	IC50 (KRas^G12R)	IC50 [5]	IC50 (KRas^G12D)	IC50 [6]	IC50 [7]	IC50 (KRas^G12V)	IC50 [8]
CCc1c(F)ccc2cc(O)cc(-c3ncc4c(N5CC6CCC(C(=O)NC)(C6)C5)nc(OC[C@@]56CCCN5C[C@H](F)C6)nc4c3F)c12 (stereo partly drawn) [Example 889, 3-(7-(8-ethyl-7-fluoro-3-hydroxynaphthalen-1-yl)-8-fluoro-2-(((2R,7aS)-2-fluorotetrahydro-1H-pyrrolizin-7a(5H)-yl)methoxy)pyrido[4,3-d]pyrimidin-4-yl)-N-methyl-3-azabicyclo[3.2.1]octane-1-carboxamide]	365 nM	55 nM	24 nM	188 nM	5 nM	129 nM	4 nM	600 nM	> 10000 nM	< 2 nM	134 nM
CCc1c(F)ccc2cc(O)cc(-c3ncc4c(N5CC6CCC(COC)(C6)C5)nc(OC[C@@]56CCCN5C[C@H](F)C6)nc4c3F)c12 (stereo partly drawn) [Example 891, 5-ethyl-6-fluoro-4-(8-fluoro-2-(((2R,7aS)-2-fluorotetrahydro-1H-pyrrolizin-7a(5H)-yl)methoxy)-4-(1-(methoxymethyl)-3-azabicyclo[3.2.1]octan-3-yl)pyrido[4,3-d]pyrimidin-7-yl)naphthalen-2-ol]	658 nM	73 nM	382 nM	568 nM	9 nM	295 nM	22 nM	621 nM	> 10000 nM	6 nM	150 nM
CCc1c(F)ccc2cc(O)cc(-c3ncc4c(N5CC6CCC(COC(=O)N(C)C)(C6)C5)nc(OC[C@@]56CCCN5C[C@H](F)C6)nc4c3F)c12 (stereo partly drawn) [Example 892, (3-(7-(8-ethyl-7-fluoro-3-hydroxynaphthalen-1-yl)-8-fluoro-2-(((2R,7aS)-2-fluorotetrahydro-1H-pyrrolizin-7a(5H)-yl)methoxy)pyrido[4,3-d]pyrimidin-4-yl)-3-azabicyclo[3.2.1]octan-1-yl)methyl dimethylcarbamate]	2140 nM	174 nM	960 nM	992 nM	26 nM	1630 nM	120 nM	2180 nM	> 10000 nM	26 nM	382 nM
CCc1c(F)ccc2cc(O)cc(-c3ncc4c(N5CCC[C@@](C)(O)C5)nc(OC[C@@]56CCCN5[C@H](COC(C)C)CC6)nc4c3F)c12 [Example 895, (R)-1-(7-(8-ethyl-7-fluoro-3-hydroxynaphthalen-1-yl)-8-fluoro-2-(((3S,7aS)-3-(isopropoxymethyl)tetrahydro-1H-pyrrolizin-7a(5H)-yl)methoxy)pyrido[4,3-d]pyrimidin-4-yl)-3-methylpiperidin-3-ol]	73 nM	11 nM	11 nM	79 nM	< 2 nM	119 nM	< 2 nM	27 nM	905 nM	< 2 nM	42 nM
CCc1c(F)ccc2cc(O)cc(-c3ncc4c(N5CCOCC6(CNC(=O)N6)C5)nc(OC[C@@]56CCCN5C[C@H](F)C6)nc4c3F)c12 (stereo partly drawn) [Example 898, 10-(7-(8-ethyl-7-fluoro-3-hydroxynaphthalen-1-yl)-8-fluoro-2-(((2R,7aS)-2-fluorotetrahydro-1H-pyrrolizin-7a(5H)-yl)methoxy)pyrido[4,3-d]pyrimidin-4-yl)-7-oxa-1,3,10-triazaspiro[4.6]undecan-2-one]	355 nM	196 nM	56 nM	1010 nM	< 2 nM	836 nM	< 2 nM	250 nM	> 10000 nM	< 2 nM	252 nM
